Experimental data published in patent publication US10517862B2, “Fused heterocyclic compound derivative and application thereof” (NHWA PHARMA. CORPORATION, priority 2015, dated 2019).
Read-outs that look alike come from different tables or passages of the source.

How the values were obtained:
mice of Kunming breed [1] = test: MK-801 induced high activity in mice; assay type: in vivo; details: Mus musculus, 1.5 h, po, MK-801 0.1 mg/kg ip, spontaneous activities in 90 min
Protocol: Example 54: MK-801 Induced High Activity—the In Vivo Anti-Schizophrenia Activity of the Compounds
Healthy mice of Kunming breed (with half male and half female, (20±2) g) were provided by Qinglongshan Animal Cultivation Center, Nanjing.
Ascorbic acid was provided by Sinopharm Chemical Reagent Co. Ltd.
MK-801 was produced by Sigma Company, USA; the formulation method: 0.1% vitamin C was used to formulate a 1 mg/ml solution.
Test positive drugs: haloperidol, clozapine, risperidone, olanzapine, aripiprazole, ziprasidone, quetiapine.
Tween 80, with the concentration of 10%.
Mice with qualified body weight were selected, and randomly divided into blank group, model group, positive control group (risperidone group) and drug group. […] 1 h after the administration, 0.1% concentration of ascorbic acid was intraperitoneally injected to the blank group at 0.1 ml/10 g; and the model group, the positive control group (30 min) and the drug group were intraperitoneally injected the MK-801 solution at 0.1 mg/kg. Subsequently, the spontaneous activities of the mice of each group in 90 min were measured.

mice of Kunming breed [2] = test: Apomorphine induced clambering assay of mice; assay type: in vivo; details: for ED50: Mus musculus, read-out: Apomorphine induced clambering (ED50, po, mg/kg)
Protocol: Healthy mice of Kunming breed (KM) (male, with body weight of 18-22 g) were provided by Qinglongshan Animal Cultivation Center, Nanjing.
Apomorphine provided by Sigma Company was dissolved in 0.9% NaCl (containing 0.1% vitamin C) before use, and was freshly formulated before use.
Vitamin C, F20061113, was provided by Sinopharm Chemical Reagent Co. Ltd.
Sodium chloride injection, H32026305, was provided by Xuzhou No. 5 Pharmaceutical Factory Co. Ltd.
Instruments: self-made clambering cage, chronograph.
Procedures: apomorphine induced clambering assay of mice
After 5 min of adaptation, the behavior of the mice at 10-11, 20-21, and 30-31 min after the injection of apomorphine were observed and scored. Scoring criteria: the behavior of 4 paws on the floor was scored as 0; the behavior of 2 forepaws on the cage was scored as 1; and the behavior of 4 paws on the cage was scored as 2.

KM mice = test: in vivo
in vivo = details: both sexes, mouse, in vivo, po
D2 receptor = D2 receptor binding assay (3H-Spiperone, rat striatum membrane); details: test compound final concentration 10^−5 M; 3H-Spiperone; rat striatum membrane
Protocol: Preparation of D2 Membrane
Rats were decapitated on ice. […] The weight of the homogenized tubes were adjusted using a balance, and centrifugation was conducted. […] Centrifugation was conducted.
(§1) Materials for the Receptor Binding Assay

5HT1A receptor = target: T1, 5HT1A receptor (Rattus norvegicus, UniProt P19327); test: 5HT1A receptor binding assay (3H-8-OH-DPAT, rat striatum membrane); details: test compound final concentration 10^−5 M; 3H-8-OH-DPAT; rat striatum membrane; read-out: 5HT1A Inhibition rate (%)
T1 construct: Rats were decapitated on ice; from tissue; host or cells: rat brain striatum
T1 sequence (P19327 1-422): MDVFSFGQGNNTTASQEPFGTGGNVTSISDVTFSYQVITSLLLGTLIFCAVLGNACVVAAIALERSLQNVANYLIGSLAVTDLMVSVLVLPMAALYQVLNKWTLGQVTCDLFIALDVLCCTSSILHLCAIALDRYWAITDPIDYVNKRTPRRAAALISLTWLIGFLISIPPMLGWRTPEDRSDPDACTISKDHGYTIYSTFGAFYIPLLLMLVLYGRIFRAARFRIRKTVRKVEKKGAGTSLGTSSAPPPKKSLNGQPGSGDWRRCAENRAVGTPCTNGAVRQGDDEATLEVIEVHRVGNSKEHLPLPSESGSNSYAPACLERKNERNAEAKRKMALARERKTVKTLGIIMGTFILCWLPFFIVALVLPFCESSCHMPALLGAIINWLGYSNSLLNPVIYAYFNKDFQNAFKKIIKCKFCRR
Protocol: Preparation of 5HT1A Membrane
Rats were decapitated on ice. […] Incubation at 37° C. was conducted for 10 min. […] Centrifugation was conducted at 12000 rpm, 4° C. for 20 min. […] Centrifugation was conducted and repeated 3 times.
as §1

D3 receptor = target: T2, D3 receptor (Homo sapiens, UniProt P35462); test: D3 receptor assay ([3H]-Spiperone, HEK-293 cells); assay type: binding; details: test compound final concentration 10 μmol/L; [3H]-Spiperone; HEK-293 cells; read-out: D3 Inhibition rate (%)
T2 construct: expressed in transfected cells; host or cells: HEK-293
T2 sequence (P35462 whole entry): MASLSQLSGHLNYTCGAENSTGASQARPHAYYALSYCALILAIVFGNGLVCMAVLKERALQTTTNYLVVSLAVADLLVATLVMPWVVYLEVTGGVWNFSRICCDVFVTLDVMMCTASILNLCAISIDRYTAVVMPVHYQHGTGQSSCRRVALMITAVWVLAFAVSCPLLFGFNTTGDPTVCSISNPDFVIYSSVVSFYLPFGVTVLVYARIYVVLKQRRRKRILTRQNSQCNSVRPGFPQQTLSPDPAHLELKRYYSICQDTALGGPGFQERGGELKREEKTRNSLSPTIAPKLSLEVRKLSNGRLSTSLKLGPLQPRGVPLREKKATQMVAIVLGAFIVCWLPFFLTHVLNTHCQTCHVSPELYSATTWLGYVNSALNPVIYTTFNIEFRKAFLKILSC
Protocol: Then the cells were centrifuged at 1000 rpm for 5 min, the supernatant was discarded, and the cell pellets was collected and stored in a −20° C. fridge for reservation. It was re-suspended with Tris-Cl (pH 7.4) when the assay was performed.
Tris was divided into aliquots by Genetimes Technology Inc.
Competitive binding test for receptors: 20 μl of each of the test compounds and 20 μl of the radioactive ligand together with 160 μl of the receptor proteins were added into the reaction tubes, and the final concentrations of the test compound and the positive drug were all 10 μmol/L. After 50 min of incubation in 30° C. water bath, the tubes were immediately moved to ice bath to terminate the reactions. GF/C glass fiber filter papers were used for rapid sucking filtration on a Millipore cell sample collector, 3 ml of elution buffer (50 mM Tris-HCl, PH 7.4) was applied for 3 times, and microwave was applied for 4-5 min for drying. The filter paper was moved into 0.5 ml centrifuge tube, and 500 μl of liposoluble scintillation cocktail was added. The tubes were allowed to stand still for over 30 min in dark, and the intensities of radioactivity were measured by a counter.

5HT2C receptor = target: T3, 5HT2C receptor (Rattus norvegicus, UniProt P08909); test: 5HT2C receptor binding assay ([3H]-mesulergine, rat striatum membrane); details: test compound final concentration 10^−5 M; [3H]-mesulergine; rat striatum membrane; read-out: 5HT2C Inhibition rate (%)
T3 construct: from tissue; host or cells: rat brain striatum
T3 sequence (P08909 33-460): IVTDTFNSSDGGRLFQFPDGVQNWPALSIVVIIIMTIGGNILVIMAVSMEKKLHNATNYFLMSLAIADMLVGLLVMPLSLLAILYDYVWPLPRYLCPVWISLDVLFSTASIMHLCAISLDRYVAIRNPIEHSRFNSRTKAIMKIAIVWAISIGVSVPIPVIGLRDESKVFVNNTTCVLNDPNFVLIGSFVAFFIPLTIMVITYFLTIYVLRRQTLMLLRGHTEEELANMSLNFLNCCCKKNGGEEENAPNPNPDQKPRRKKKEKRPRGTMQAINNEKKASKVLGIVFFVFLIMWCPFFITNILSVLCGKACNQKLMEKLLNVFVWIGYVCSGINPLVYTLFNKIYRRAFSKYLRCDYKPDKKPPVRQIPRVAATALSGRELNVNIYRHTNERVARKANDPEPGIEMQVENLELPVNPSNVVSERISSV
Protocol: Preparation of 5HT2C Membrane
Rats were decapitated on ice. […] Centrifugation was conducted.
as §1

[3] = test system: α1 norepinephrine receptor; test: α1 norepinephrine receptor binding assay (3H-prazosin, rat cortex membrane); details: test compound final concentration 10^−5 M; 3H-prazosin; rat cortex membrane
Text: Preparation of Receptor Membrane of Norepinephrine
α1 Norepinephrine Receptor Binding Assay

Catalepsy assay in mice = details: both sexes, Kunming, mouse, in vivo, po, bar test at 30, 60, 90 min
Protocol: Healthy mice of Kunming breed (with half male and half female, (22±2) g) were provided by Qinglongshan Animal Cultivation Center, Nanjing.
Instruments: self-made bar-grabbing apparatus: stainless steel bar in mice box, which was 0.3 cm in diameter and […].
Corresponding solvent double-distilled water was administered intragastrically to the negative control group and the model group, corresponding positive drugs were administered intragastrically to the positive drug groups (a small amount of acetic acid was first added and then double-distilled water was added when dissolving), and corresponding dosages of compounds were administered intragastrically to the compound groups for each dosage, with the volume for intragastric administration as 0.1 ml/10 g. At 30 min, 60 min, 90 min after the intragastric administration, the two forepaws of the mice were gently placed on the bars (which were 20 cm in length, 0.3 cm in diameter, and 5.5 cm above the bench), and the hindpaws of the animals were placed on the bottom of the box. The durations of the mice to maintain the posture with the two forepaws on the bars were recorded, and 30 s of spasticity without moving was considered as the positive response. In the case the forepaws of the mice were not put down persistently, the observation was terminated at 60 s. The numbers of animals with positive response in each of the compound dosage groups were counted.

5HT2A receptor = 5HT2A receptor (Rattus norvegicus, UniProt P14842); test: 5HT2A receptor binding assay ([3H]-Ketanserin, rat striatum membrane); details: read-out: 5HT2A Inhibition rate (%)
Chain of 5HT2A receptor (P14842 whole entry): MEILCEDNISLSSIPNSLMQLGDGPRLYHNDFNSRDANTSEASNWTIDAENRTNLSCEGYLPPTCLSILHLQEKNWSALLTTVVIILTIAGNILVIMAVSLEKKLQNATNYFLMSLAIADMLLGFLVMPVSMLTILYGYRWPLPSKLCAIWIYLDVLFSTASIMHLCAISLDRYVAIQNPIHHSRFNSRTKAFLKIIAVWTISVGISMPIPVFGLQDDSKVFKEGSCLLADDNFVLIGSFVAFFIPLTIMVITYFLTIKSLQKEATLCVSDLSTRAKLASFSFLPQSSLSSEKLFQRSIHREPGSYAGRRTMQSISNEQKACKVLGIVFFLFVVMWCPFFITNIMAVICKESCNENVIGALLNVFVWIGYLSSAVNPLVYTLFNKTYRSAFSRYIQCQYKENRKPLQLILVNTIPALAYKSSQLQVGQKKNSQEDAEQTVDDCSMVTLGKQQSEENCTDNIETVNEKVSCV

Histamine H1 receptor = Histamine H1 receptor (Rattus norvegicus, UniProt P31390); test: Histamine H1 receptor binding assay (3H-pyrilamine, rat cerebellum membrane); details: read-out: H1 Inhibition rate (%)
Chain of Histamine H1 receptor (P31390 whole entry): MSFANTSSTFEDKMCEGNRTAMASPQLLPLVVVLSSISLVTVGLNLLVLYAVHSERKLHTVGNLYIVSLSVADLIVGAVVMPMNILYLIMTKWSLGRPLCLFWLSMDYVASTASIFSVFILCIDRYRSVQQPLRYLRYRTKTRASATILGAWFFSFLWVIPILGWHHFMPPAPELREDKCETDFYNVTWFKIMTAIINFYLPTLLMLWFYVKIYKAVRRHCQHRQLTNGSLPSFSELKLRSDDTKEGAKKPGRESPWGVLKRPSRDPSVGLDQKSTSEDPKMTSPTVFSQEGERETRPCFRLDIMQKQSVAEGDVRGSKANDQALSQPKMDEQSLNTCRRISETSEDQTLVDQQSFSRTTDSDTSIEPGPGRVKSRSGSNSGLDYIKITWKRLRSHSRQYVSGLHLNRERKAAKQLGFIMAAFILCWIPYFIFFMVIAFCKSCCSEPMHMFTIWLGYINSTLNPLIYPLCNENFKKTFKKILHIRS
Protocol: The supernatant was discarded to give pellets, and homogenate F was added again to the pellets for washing. Centrifugation was conducted and repeated 3 times.
(2) 100 μL of membrane preparation was added into each reaction tube.

[4] = mice, po, apomorphine 1 mg/kg sc 1 hour after administration
[5] = both, KM, mouse, in vivo, po, 7 days
[6] = single intragastric administration in mice
[7] = single intragastric administration in mice, read-out: LD50 (po, mg/kg)

Row | SMILES | ED50 (mice of Kunming breed [1]) | ED50 (mice of Kunming breed [2]; [4]) | D2 Inhibition rate (%) (D2 receptor) | inhibition at 10 µM (5HT1A receptor) | inhibition at 10 µM (D3 receptor) | inhibition at 10 µM (5HT2C receptor) | α1 Inhibition rate (%) [3] | inhibition at 10 µM (5HT2A receptor) | inhibition at 10 µM (Histamine H1 receptor) | further results
1 | O=C1CCc2ccc(OCCCCN3CCN(c4cccc(Cl)c4Cl)CC3)cc2N1 [aripiprazole] | 0.12 mg/kg | 0.66 mg/kg | – | – | – | – | – | – | – | LD50 (po, mg/kg) (KM mice; [5]): 93 mg/kg
2 | O=C(CCCN1CCC(O)(c2ccc(Cl)cc2)CC1)c1ccc(F)cc1 [haloperidol] | 7.42 mg/kg | 0.1 mg/kg | – | – | – | – | – | – | – | LD50 (po, mg/kg) (KM mice; [6]): 20 mg/kg
3 | O=C1Cc2cc(CCN3CCN(c4nsc5ccccc45)CC3)c(Cl)cc2N1 [ziprasidone] | 0.56 mg/kg | 0.37 mg/kg | – | – | – | – | – | – | – | LD50 at 7 days (in vivo; [7]): > 2000 mg/kg
4 | O=C1CCc2cc(CCCCN3CCC(c4noc5cc(F)ccc45)CC3)cc3c2N1CCC3 [Compound 7] | 0.92 mg/kg | 0.44 mg/kg | 94.32% | 99.2% | 98.1% | 62.2% | 63.69% | 99.4% | 46.4% | ED50 (Catalepsy assay in mice): 24.1 mg/kg; LD50 at 7 days (in vivo; [7]): > 2000 mg/kg
5 | Cc1nc2n(c(=O)c1CCN1CCC(c3noc4cc(F)ccc34)CC1)CCCC2 [risperidone] | – | – | – | – | – | – | – | – | – | ED50 (mice of Kunming breed [2]; 1 h): 0.015 mg/kg; effect on apomorphine induced clambering symptoms (in words) (mice of Kunming breed [2]; compared with the model group, mice): effectively improve
6 | OCCOCCN1CCN(C2=Nc3ccccc3Sc3ccccc32)CC1 [quetiapine] | 10.1 mg/kg | 2.02 mg/kg | – | – | – | – | – | – | – | LD50 (po, mg/kg) (KM mice; [5]): 800 mg/kg
7 | O=C(CCCN1CCC(c2noc3cc(F)ccc23)CC1)c1cc2c3c(c1)CCN3C(=O)CC2 [Compound 15] | 0.21 mg/kg | 0.12 mg/kg | 103.83% | 103% | 99.9% | 52.7% | 43.69% | 104% | 34% | ED50 (Catalepsy assay in mice): 50 mg/kg; LD50 at 7 days (in vivo; KM): > 2000 mg/kg
8 | CN1CCN(C2=Nc3cc(Cl)ccc3Nc3ccccc32)CC1 [clozapine] | 2.28 mg/kg | 17.9 mg/kg | – | – | – | – | – | – | – | LD50 (po, mg/kg) (KM mice; [6]): 150 mg/kg
9 | Cc1cc2c(s1)Nc1ccccc1N=C2N1CCN(C)CC1 [olanzapine] | – | – | – | – | – | – | – | – | – | ED50 (mice of Kunming breed [2]; 1 h): 0.11 mg/kg
10 | O=C(CCN1CCC(c2noc3cc(F)ccc23)CC1)c1cc2c3c(c1)CCC(=O)N3CCC2 [Compound 2] | 0.2 mg/kg | 0.11 mg/kg | 94.33% | 93.9% | 74.9% | 63.9% | 68.75% | 97.9% | 47.9% | ED50 (Catalepsy assay in mice): 3.8 mg/kg; LD50 at 7 days (in vivo; [7]): > 2000 mg/kg
11 | CC1CC(=O)N2CCCc3cc(C(=O)CCCN4CCC(c5noc6cc(F)ccc56)CC4)cc1c32 (centres unmarked) [Compound 9] | – | – | 91.76% | 84% | 86% | 54% | 66.62% | 90.2% | 46% | –
12 | O=C(CN1CCC(c2noc3cc(F)ccc23)CC1)c1cc2c3c(c1)CCC(=O)N3CCC2 [Compound 1] | – | – | 45.89% | 54.6% | 60.9% | 84.6% | 68.75% | 84.9% | 84.9% | –
